Test results taken from publication PMC5217299, “Triptolide Induces hepatotoxicity via inhibition of CYP450s in Rat liver microsomes” (BMC Complementary and Alternative Medicine, 2017).

Test system: T1, CYP3A
T1 construct: gene Cyp3a1; native isoenzyme mixture in liver microsomes of female SD rats
Experiment: UHPLC-MS/MS of 1-hydroxymidazolam formation, cocktail probe, Michaelis-Menten fit
Details: liver microsomes of vehicle control rats; cocktail of six substrates together; NADPH regeneration system, pH 7.4, 37 °C

## Cc1ncc2n1-c1ccc(Cl)cc1C(c1ccccc1F)=NC2 [midazolam]
  Km: 1.99 ± 0.267 µM
